In article PMC7046293, “Parallel quorum-sensing system in Vibrio cholerae prevents signal interference inside the host” (PLoS Pathogens, 2020):

Target: T1, CqsR-LBD (Vibrio cholerae, UniProt Q9KR16)
T1 construct: gene VC_1831; pET28B His6 tag kept; E. coli BL21(DE3)
Assay: differential scanning fluorimetry (SYPRO Orange)
Type: binding
Details: 10 mM ligand; 10 μM protein; PBS pH 7.5, 10% glycerol; Tm without ligand 46 °C
Text: differential scanning fluorimetry (SYPRO Orange) on CqsR-LBD

Structure (SMILES) | Tm (°C)^b
C[C@H](N)CO [L-alaninol, (S)-(+)-2-Amino-1-propanol] | 60 °C
NC(CO)CO [Serinol, 2-Amino-1,3-propanediol] | 53.67 [0.58]
